Results: the supplement of paper PMC11208160

Experiment: recombinant UMI read abundance after kanamycin selection (control-corrected) (log10(CPM+1)); higher = more efficient recombination; extreme values may be limits of the assay; sequences stand for … in AGTGCAGAGAAAATCGGCCAGTTTTCTCTGCCTGCAGTCCGCATGCCGTGGGACCCCTTGGGTTCTAACCTGTTGCCTAGATTTATGCAGCGGACTGCCTTTCTCCCAAAGTGATAAACCGG…AGGTTGGTTTCACT; site = the 11-nt donor
Method in brief: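 Sequenced counts of recombinant UMIs were turned into CPM, averaged across replicates and scaled with control-derived factors. The reported figure is log10(CPM+1). Those UMIs, each 12 nt long, tagged donor and donor-binding-loop pairs on a plasmid with a promoterless kanamycin gene, screened as a pool in Escherichia coli with IPTG (0.07 mM) plus kanamycin or without selection.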
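Note: IS621 bridge recombinase in Escherichia coli cells against a fixed T5 target plasmid.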

Sequence	recombinant UMI read abundance (log10)
GGCCTCCCATGGACCGGTTTTCCCGGTAATCCGTATTTGTT (site GGCCACCCTAA)	0.0137
GGCCTCCCATGGACCGGTTTTCCCGGTAATCCGTATTTGTT (site GGCCCCCCTAA)	0
GGCCTCCCATGGACCGGTTTTCCCGGTAATCCGTATTTGTT (site GGCCGCCCTAA)	0.0206
GGCCTCCCATGGACCGGTTTTCCCGGTAATCCGTATTTGTT (site GGCCTCCCTAA)	0.00625
GGCGAACCATGGACCGGTTTTCCCGGTAATCCGTATTTGAC (site GGCGAACCTGT)	0
GGCGAACCATGGACCGGTTTTCCCGGTAATCCGTATTTGGG (site GGCGAACCTCC)	0
GGCGACCCATGGACCGGTTTTCCCGGTAATCCGTATTTGTT (site GGCAACCCTAA)	0
GGCGACCCATGGACCGGTTTTCCCGGTAATCCGTATTTGTT (site GGCCACCCTAA)	0.0153
GGCGACCCATGGACCGGTTTTCCCGGTAATCCGTATTTGTT (site GGCGACCCTAA)	0.263
GGCGACCCATGGACCGGTTTTCCCGGTAATCCGTATTTGTT (site GGCTACCCTAA)	0.0186
GGCGAGGCATGGACCGGTTTTCCCGGTAATCCGTATTTGTC (site GGCGAGGCTGA)	2.23
GGCGATACATGGACCGGTTTTCCCGGTAATCCGTATTTGTT (site GGCGATACTAA)	1.81
GGCGCACCATGGACCGGTTTTCCCGGTAATCCGTATTTGCA (site GGAGCACCTTG)	0
GGCGCACCATGGACCGGTTTTCCCGGTAATCCGTATTTGCA (site GGCGCACCTTG)	0
GGCGCACCATGGACCGGTTTTCCCGGTAATCCGTATTTGCA (site GGGGCACCTTG)	0
GGCGCACCATGGACCGGTTTTCCCGGTAATCCGTATTTGCA (site GGTGCACCTTG)	0.00254
GGCGCAGCATGGACCGGTTTTCCCGGTAATCCGTATTTGTT (site GGCGCAGCTAA)	0.794
GGCTAATCATGGACCGGTTTTCCCGGTAATCCGTATTTGAT (site GGCTAATCTAT)	0.935
GGCTACTCATGGACCGGTTTTCCCGGTAATCCGTATTTGCT (site GGCTACTCTAG)	2.43
GGCTCTACATGGACCGGTTTTCCCGGTAATCCGTATTTGGT (site GGCTCTACTAC)	0
GGCTTGGCATGGACCGGTTTTCCCGGTAATCCGTATTTGGT (site GGCTTGGCTAC)	0.216
GGGAATACATGGACCGGTTTTCCCGGTAATCCGTATTTGCA (site AGGAAGACTTG)	0
GGGAATACATGGACCGGTTTTCCCGGTAATCCGTATTTGCA (site GGGAATACTTG)	1.37
GGGAATACATGGACCGGTTTTCCCGGTAATCCGTATTTGTT (site CGGAATCCTAA)	0
GGGAATACATGGACCGGTTTTCCCGGTAATCCGTATTTGTT (site GGGAATACTAA)	1.29

Sequence	recombinant UMI read abundance (log10)
GGGAATCCATGGACCGGTTTTCCCGGTAATCCGTATTTGAA (site GGAAATCCTTT)	0.0039
GGGAATCCATGGACCGGTTTTCCCGGTAATCCGTATTTGAA (site GGCAATCCTTT)	0.00362
GGGAATCCATGGACCGGTTTTCCCGGTAATCCGTATTTGAA (site GGGAATCCTTT)	0.808
GGGAATCCATGGACCGGTTTTCCCGGTAATCCGTATTTGAA (site GGTAATCCTTT)	0.0108
GGGACATCATGGACCGGTTTTCCCGGTAATCCGTATTTGCT (site AGGACATCTAG)	0
GGGACATCATGGACCGGTTTTCCCGGTAATCCGTATTTGCT (site CGGACATCTAG)	0
GGGACATCATGGACCGGTTTTCCCGGTAATCCGTATTTGCT (site GGGACATCTAG)	1.43
GGGACATCATGGACCGGTTTTCCCGGTAATCCGTATTTGCT (site TGGACATCTAG)	0
GGGACTACATGGACCGGTTTTCCCGGTAATCCGTATTTGCA (site GGGACTACTTG)	1.67
GGGACTTCATGGACCGGTTTTCCCGGTAATCCGTATTTGTG (site GGGACTTCTCA)	0.746
GGGATCGCATGGACCGGTTTTCCCGGTAATCCGTATTTGCT (site GGGATCGCTAG)	3.09
GGGATGACATGGACCGGTTTTCCCGGTAATCCGTATTTGAG (site GGGATGACTCT)	1.86
GGGATGCCATGGACCGGTTTTCCCGGTAATCCGTATTTGGC (site GGGATGCCTGC)	0
GGGCAACCATGGACCGGTTTTCCCGGTAATCCGTATTTGCG (site GGGCAACCTCG)	0
GGGCAGACATGGACCGGTTTTCCCGGTAATCCGTATTTGCA (site AGGAAGACTTG)	0.0416
GGGCAGACATGGACCGGTTTTCCCGGTAATCCGTATTTGCA (site GGGCAGACTTG)	2.58
GGGGAACCATGGACCGGTTTTCCCGGTAATCCGTATTTGCA (site GGGGAACCTTG)	0
GGGGAACCATGGACCGGTTTTCCCGGTAATCCGTATTTGCA (site GGGGCACCTTG)	0
GGGGAACCATGGACCGGTTTTCCCGGTAATCCGTATTTGCA (site GGGGGACCTTG)	0
GGGGAACCATGGACCGGTTTTCCCGGTAATCCGTATTTGCA (site GGGGTACCTTG)	0
GGGGAATCATGGACCGGTTTTCCCGGTAATCCGTATTTGGG (site GGGGAATCTCC)	0.39
GGGGCAACATGGACCGGTTTTCCCGGTAATCCGTATTTGTC (site GGGGCAACTGA)	1.94
GGGGTAACATGGACCGGTTTTCCCGGTAATCCGTATTTGGG (site GGGGTAACTCC)	0.597
GGGGTTGCATGGACCGGTTTTCCCGGTAATCCGTATTTGCG (site GGGGTTGCTCG)	1.75
GGGTACACATGGACCGGTTTTCCCGGTAATCCGTATTTGGC (site GGGTACACTGC)	3.08

Sequence	recombinant UMI read abundance (log10)
GGGTCGGCATGGACCGGTTTTCCCGGTAATCCGTATTTGGC (site GGGTCGGCTGC)	2.18
GGGTGTTCATGGACCGGTTTTCCCGGTAATCCGTATTTGTT (site GGGTGTTCTAA)	1.1
GGGTTGACATGGACCGGTTTTCCCGGTAATCCGTATTTGAA (site GGGTTGACTTT)	0.979
GGTAAGTCATGGACCGGTTTTCCCGGTAATCCGTATTTGTT (site GGTAAGTCTAA)	1.98
GGTAAGTCATGGACCGGTTTTCCCGGTAATCCGTATTTGTT (site GGTACGTCTAA)	0.00407
GGTAAGTCATGGACCGGTTTTCCCGGTAATCCGTATTTGTT (site GGTAGGTCTAA)	0.00944
GGTAAGTCATGGACCGGTTTTCCCGGTAATCCGTATTTGTT (site GGTATGTCTAA)	0.00986
GGTAATCCATGGACCGGTTTTCCCGGTAATCCGTATTTGAA (site GGAAATCCTTT)	0.00275
GGTAATCCATGGACCGGTTTTCCCGGTAATCCGTATTTGAA (site GGCAATCCTTT)	0.58
GGTAATCCATGGACCGGTTTTCCCGGTAATCCGTATTTGAA (site GGGAATCCTTT)	0.00622
GGTAATCCATGGACCGGTTTTCCCGGTAATCCGTATTTGAA (site GGTAATCCTTT)	0.27
GGTACATCATGGACCGGTTTTCCCGGTAATCCGTATTTGAG (site GGTACATCTCT)	0.66
GGTACGACATGGACCGGTTTTCCCGGTAATCCGTATTTGTT (site GGTACGACTAA)	0.444
GGTACGACATGGACCGGTTTTCCCGGTAATCCGTATTTGTT (site GGTACGCCTAA)	0.0177
GGTACGACATGGACCGGTTTTCCCGGTAATCCGTATTTGTT (site GGTACGGCTAA)	0.0185
GGTACGACATGGACCGGTTTTCCCGGTAATCCGTATTTGTT (site GGTACGTCTAA)	0.0179
GGTACGTCATGGACCGGTTTTCCCGGTAATCCGTATTTGTC (site GGTACGTCTAA)	0.0158
GGTACGTCATGGACCGGTTTTCCCGGTAATCCGTATTTGTC (site GGTACGTCTCA)	0.0113
GGTACGTCATGGACCGGTTTTCCCGGTAATCCGTATTTGTC (site GGTACGTCTGA)	0.0103
GGTACGTCATGGACCGGTTTTCCCGGTAATCCGTATTTGTC (site GGTACGTCTTA)	0.0125
GGTATGCCATGGACCGGTTTTCCCGGTAATCCGTATTTGAC (site GGTATGCCTGT)	0
GGTATTTCATGGACCGGTTTTCCCGGTAATCCGTATTTGAA (site GGTATTTCTTT)	0
GGTCAAGCATGGACCGGTTTTCCCGGTAATCCGTATTTGGC (site GGTCAAGCTGC)	1.47
GGTCCATCATGGACCGGTTTTCCCGGTAATCCGTATTTGTA (site GGTCCAACTTA)	0.016
GGTCCATCATGGACCGGTTTTCCCGGTAATCCGTATTTGTA (site GGTCCACCTTA)	0.0104
